# Assays:
# [1] = human, in vivo, cited from earlier work
# STZ-diabetic rats = assay: Plasma glucose lowering in STZ-diabetic rats after i.p. administration (glucose oxidase method); type: in vivo, male Wistar rats; conditions: for AUC (blood glucose): over 72 h after 0.12 mmol/kg i.p., group average; for rats with plasma glucose levels reduced to <9 mmol/L: 0.12 mmol/kg i.p. in 3% gum Arabic, STZ-diabetic rats
# Experimental: Nineteen male Wistar rats weighing 190-220 g were obtained from the Animal Care Center at the University of British Columbia. Animals were acclimatized for a period of 7-14 days in our facility.
# Animals were made diabetic with a single intravenous injection of streptozotocin (STZ) (Source: Sigma) at 60 mg/kg in 0.9% NaCl (1 mL/kg volume) (Source: BDH ) under light halothane (Halocarbon Laboratories) anaesthesia. The diabetic state was confirmed on the third day post-stz-administration with Ames brand Glucometer and Glucostix reading, and blood glucose levels of over 13 mM were categorized as diabetic.
# On day seven post STZ-administration, the nineteen animals were divided randomly into four groups. These four groups received one of four treatments, including control. The control group received an equivalent volume of 3% gum Arabic carrier alone.
# The gum arabic was prepared by dissolving 3 g of gum arabic in 100 mL of distilled water. This mixture was sealed and stored under refrigeration for 1 week before the experiment.
# All drugs were injected intraperitoneally into the rats at a volume of 5 ml/kg in 3% gum Arabic. The dose of administration was 0.12 mmol/kg.
# Animals were allowed free access to food.
# Blood was collected from the tail into heparinized capillary tubes and centrifuged at 10,000 g for 15 minutes. Blood was collected in 50 μL aliquots in this manner prior to drug administration, and at 2, 4, 6, 8, 12, 16, 20, 24, 48 and 72 hours post administration.
# The plasma was analyzed for glucose levels using Boehringer Mannheim Glucose Kits (glucose oxidase method).
# [2] = withdrawn drug; cited from earlier work
# STZ diabetic rats = conditions: cited from earlier work
# [3] = Sakurai et al. (1980); cited from earlier work
# rat adipocytes = conditions: in vitro, Nature 284:556-558 (1980); cited from earlier work
compound,measurement,setting,value
"CN(C)C(=N)NC(=N)N [Metformin, 1,1-dimethylbiguanide]",dose excreted by the kidneys,[1]; 24 h,about 90%
same,oral dose excreted in the feces,[1]; po,Approximately 30%
same,acute lowering of plasma glucose (in words),"STZ-diabetic rats; IP 0.12 mmol/kg in 3% gum Arabic, over 72 hours",did not acutely lower plasma glucose levels
same,AUC (blood glucose),STZ-diabetic rats,1572.94 mmol/L/h
"[H]/N=C(/N)N/C(=N/[H])NCCc1ccccc1 [phenformin, 1-phenethylbiguanide]",side effects (in words),[2],serious lactic acidosis side effects
[O]=[V]([O-])([O-])[O-] [vanadate],elevated blood glucose (in words),"STZ diabetic rats; STZ rats, administered in drinking water, McNeill et al. 1985",decreased the elevated blood glucose
same,depression of cardiac performance (in words),"STZ diabetic rats; STZ rats, drinking water, McNeill et al. 1985",prevented the depression of cardiac performance
same,in vivo reduction (in words),[3],reduced in vivo to vanadyl
[O]=[V+2] [vanadyl ion],stimulation of glucose oxidation (in words),rat adipocytes,insulin-like stimulation of glucose oxidation in rat adipocytes was due to the vanadyl ion
O=S(=O)([O-])[O-].[O]=[V+2] [vanadyl sulfate],blood glucose and blood lipids (in words),"STZ diabetic rats; oral, STZ diabetic rats, McNeill et al.",lowers blood glucose and blood lipids
same,secondary complications of diabetes (in words),"STZ diabetic rats; oral, STZ diabetic rats, cataracts and cardiac dysfunction",prevents secondary complications of diabetes such as cataracts and cardiac dysfunction
"Bis(N^1,N^1 -dimethylbiguanidato)oxovanadium(IV) [VO(met)2]",rats with plasma glucose levels reduced to <9 mmol/L,STZ-diabetic rats,40%
same,AUC (blood glucose),STZ-diabetic rats,1362.61 mmol/L/h
same,"plasma glucose lowering, rat studies (in words)","STZ-diabetic rats; rat studies, summary statement",active in lowering plasma glucose
Bis(ethylmaltolato) oxovanadium(IV) [BEOV],rats with plasma glucose levels reduced to <9 mmol/L,STZ-diabetic rats,40%
same,AUC (blood glucose),STZ-diabetic rats,1197.30 mmol/L/h
